Values quoted from earlier work as cited in patent US20230018600A1, “CONTROLLED RELEASE FORMULATIONS COMPRISING DROTAVERINE OR SALT THEREOF” (priority 2020, published 2023).

Assays:
[1] = tested on: human isolated detrusor muscle; details: induced plateau of contraction
[2] = not given; remark: listed apart in the source

For `CCOc1ccc(/C=C2\NCCc3cc(OCC)c(OCC)cc32)cc1OCC` [Drotaverine, (Z)-1-(3,4-diethoxybenzylidene)-6,7-diethoxy-1,2,3,4-tetrahydroisoquinoline], the “relaxation of human detrusor muscle contraction” value [1] is listed as “significant concentration-dependent relaxation”, the “renal clearance as share of total plasma clearance” value (IR Drotaverine Tablets 80 mg) is listed as 0.31+/−0.13% and the onset of action (after oral administration of 80 mg strength IR tablets) is listed as no more than 12 min. For the same compound, the “drug absorption from small intestine” value (oral, 80 mg IR tablets) was roughly 90%, the “absolute bioavailability, range” value (oral, IR tablets 80 mg, subject-dependent range) was 24.5-91% and the “oral LD50” value [2] was greater than 1000 mg/Kg body weight.
